Measured values published in PMC3914206.

Key:
Assay type in all cases: binding
Details in all cases: Compound Concentration 10 µM
panel of 442 kinases [1] = target: T1, panel of 442 kinases (Homo sapiens, UniProt Q13188)
T1 construct: purchased KINOMEscan
T1 sequence (Q13188 1-491): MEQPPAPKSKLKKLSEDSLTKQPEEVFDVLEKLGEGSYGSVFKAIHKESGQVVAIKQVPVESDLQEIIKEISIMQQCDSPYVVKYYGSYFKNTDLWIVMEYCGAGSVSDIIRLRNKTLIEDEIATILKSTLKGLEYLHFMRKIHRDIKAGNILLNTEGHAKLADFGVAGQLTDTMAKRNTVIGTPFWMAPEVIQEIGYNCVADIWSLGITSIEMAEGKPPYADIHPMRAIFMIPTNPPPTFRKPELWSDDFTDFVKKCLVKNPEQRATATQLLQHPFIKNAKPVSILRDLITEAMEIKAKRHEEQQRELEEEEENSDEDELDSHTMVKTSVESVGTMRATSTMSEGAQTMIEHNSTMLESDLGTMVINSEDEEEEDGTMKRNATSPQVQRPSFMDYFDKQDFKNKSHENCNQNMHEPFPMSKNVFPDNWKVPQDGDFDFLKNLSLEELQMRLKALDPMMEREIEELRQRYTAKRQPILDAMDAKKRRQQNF
Text: (§1) We assessed the selectivity of members of this scaffold using the KINOMEscan methodology across a near comprehensive panel of 442 kinases [[18,27]].

panel of 442 kinases [2] = target: T2, panel of 442 kinases (Homo sapiens, UniProt Q15208)
T2 construct: purchased KINOMEscan
T2 sequence (Q15208 whole entry): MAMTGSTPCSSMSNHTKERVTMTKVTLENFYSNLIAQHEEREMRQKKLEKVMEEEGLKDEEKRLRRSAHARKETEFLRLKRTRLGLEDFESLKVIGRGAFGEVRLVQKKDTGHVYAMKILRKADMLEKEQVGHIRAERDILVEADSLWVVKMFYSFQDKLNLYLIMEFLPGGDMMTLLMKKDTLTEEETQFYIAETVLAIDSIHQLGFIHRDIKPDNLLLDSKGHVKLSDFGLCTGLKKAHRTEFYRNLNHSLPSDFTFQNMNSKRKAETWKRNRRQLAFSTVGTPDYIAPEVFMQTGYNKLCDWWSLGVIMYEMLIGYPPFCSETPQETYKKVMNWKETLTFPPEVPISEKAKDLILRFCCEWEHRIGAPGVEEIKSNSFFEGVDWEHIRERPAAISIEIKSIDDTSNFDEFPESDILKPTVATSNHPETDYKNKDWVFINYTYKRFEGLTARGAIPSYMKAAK
Text: as §1

panel of 442 kinases [3] = target: T3, panel of 442 kinases (Homo sapiens, UniProt Q15418)
T3 construct: purchased KINOMEscan
T3 sequence (Q15418 whole entry): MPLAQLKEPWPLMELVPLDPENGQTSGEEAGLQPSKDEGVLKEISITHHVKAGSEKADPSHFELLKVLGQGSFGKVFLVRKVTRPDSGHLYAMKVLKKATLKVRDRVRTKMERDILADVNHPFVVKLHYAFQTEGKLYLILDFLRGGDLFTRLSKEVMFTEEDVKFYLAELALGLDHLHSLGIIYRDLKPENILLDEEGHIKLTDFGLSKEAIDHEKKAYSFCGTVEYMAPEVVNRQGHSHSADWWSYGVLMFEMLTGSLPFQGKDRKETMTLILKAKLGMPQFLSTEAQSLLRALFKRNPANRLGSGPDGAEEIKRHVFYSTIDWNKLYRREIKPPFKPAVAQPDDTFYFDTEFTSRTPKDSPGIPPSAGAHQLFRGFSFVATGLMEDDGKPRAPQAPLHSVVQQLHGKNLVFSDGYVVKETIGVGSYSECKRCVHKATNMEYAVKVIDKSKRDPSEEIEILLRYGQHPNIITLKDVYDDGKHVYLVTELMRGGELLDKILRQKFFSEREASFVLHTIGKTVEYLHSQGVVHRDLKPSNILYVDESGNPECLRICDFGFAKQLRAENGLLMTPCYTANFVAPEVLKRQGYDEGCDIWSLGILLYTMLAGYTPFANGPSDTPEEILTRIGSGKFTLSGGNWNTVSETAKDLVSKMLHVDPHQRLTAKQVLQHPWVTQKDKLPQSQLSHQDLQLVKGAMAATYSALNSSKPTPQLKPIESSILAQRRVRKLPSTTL
Text: as §1

SMILES | KINOMEscan: MST2 (panel of 442 kinases [1]) | KINOMEscan: NDR1 (panel of 442 kinases [2]) | KINOMEscan: RSK1(Kin.Dom.1-N-terminal) (panel of 442 kinases [3]) | KINOMEscan: RSK1(Kin.Dom.2-C-terminal) (panel of 442 kinases [3])
COc1cc(C(=O)N2CCC(N3CCN(C)CC3)CC2)ccc1Nc1ncc2c(n1)N(C1CCCC1)c1ccccc1C(=O)N2C [Compound 25, 11-cyclopentyl-2-((2-methoxy-4-(4-(4-methylpiperazin-1-yl)piperidine-1-carbonyl)phenyl)amino)-5-methyl-5H-benzo[e]pyrimido[5,4-b][1,4]diazepin-6(11H)-one] | 100 | 100 | 75 | 63
CCOc1cc(C(=O)N2CCC(N3CCN(C)CC3)CC2)ccc1Nc1ncc2c(n1)N(C1CCCC1)c1ccccc1C(=O)N2C [Compound 26] | 100 | 100 | 100 | 88
COc1cc(C(=O)N2CCC(N3CCN(C)CC3)CC2)ccc1Nc1ncc2c(n1)N1CCc3cccc(c31)C(=O)N2C [Compound 24] | – | – | 71 | 22
COc1cc(C(=O)N2CCC(N3CCN(C)CC3)CC2)ccc1Nc1ncc2c(n1)N(C)c1ccccc1C(=O)N2C [15 (LRRK2-IN-1)] | 71 | 96 | 73 | 10
